Read-outs that look alike come from different tables or passages of the source.
How the values were obtained:
[1] = system: Mycobacterium tuberculosis H37Rv; assay type: cell-based; settings: for MIC: H37Rv, 7H9 liquid medium, at least 90% growth inhibition, 10 days
[2] = assay type: in vivo, CD-1 female mice; settings: p.o. 25 mg/kg, CMC/Tween80 suspension, compared with parent PAS
[3] = system: Drug susceptible Mtb strains; test: microbe, parasite or virus in culture; assay type: cell-based; settings: Mycobacterium tuberculosis
[4] = system: Mycobacterium tuberculosis; settings: cited from earlier work
[5] = p.o. 25 mg/kg

CC(C)OC(=O)c1ccc(N)cc1O [Compound 5, Isopropyl 4-amino-2-hydroxybenzoate]
MIC [1]: abolished activity

CC(C)(C)C(=O)OCOC(=O)c1ccc(N)cc1O [Compound 6, (Pivaloyloxy)methyl 4-amino-2-hydroxybenzoate]
oral bioavailability of PAS released from the suspension of prodrug [2]: significantly lower than the parent PAS

Nc1cc(O)c(C(=O)O)cc1F [Compound 11, 4-Amino-5-fluoro-2-hydroxybenzoic acid]
MIC [3]: 6.3 to 25 µM
MIC ([3]; read-out: MICs against the drug susceptible and MDR strains): 6.3 to 50 µg/mL

CNc1ccc(C(=O)O)c(O)c1 [Compound 14, 2-Hydroxy-4-(methylamino)benzoic acid]
antitubercular potency relative to PAS [4]: nearly equipotent to PAS
MIC [1]: inactive

[N-]=[N+]=Nc1ccc(C(=O)O)c(O)c1 [Compound 15, 4-Azido-2-hydroxybenzoic acid]
formation of PAS in vivo [5]: no formation of PAS in vivo
loss of activity compared to PAS ([1]; H37Rv MIC): ~200 fold
MIC [1]: weakly active

CCOC(=O)c1cc(F)c(N)cc1O [Compound 16, Ethyl 4-amino-5-fluoro-2-hydroxybenzoate]
MIC [1]: inactive

CC(=O)NC[C@H]1CN(c2ccc(N3CCOCC3)c(F)c2)C(=O)O1 [Linezolid]
MIC [3]: 0.7 to 1.9 µM

Nc1ccc(C(=O)O)c(O)c1 [PAS, para-Aminosalicylic acid]
MIC [3]: 0.2 to 0.6 µM

— publication PMC8941652 (European journal of medicinal chemistry, 2022)
